Assay results as given in ChEMBL document CHEMBL5715260, “Selectivity Literature for EUbOPEN Chemogenomic Library” (2024).

What was measured:
[1] = molecular target: Bromodomain-containing protein 3 (Homo sapiens) (UniProt Q15059); experiment: (§1) Selectivity interaction (Bromodomain panel) EUB0000323b BRD3; design: recommended concentration 1 uM
[2] = molecular target: Bromodomain-containing protein 7 (Homo sapiens) (UniProt Q9NPI1); experiment: Selectivity interaction (Bromodomain panel) EUB0000323b BRD7; design: recommended concentration 1 uM
[3] = molecular target: Adenosine receptor A1 (Homo sapiens) (UniProt P30542); experiment: Selectivity interaction (CEREP panel) EUB0000323b ADORA1; design: recommended concentration 1 uM; details: at 10 µM
[4] = molecular target: Transcription intermediary factor 1-alpha (Homo sapiens) (UniProt O15164); experiment: (§2) Selectivity interaction (Bromodomain panel) EUB0000323b TRIM24; design: recommended concentration 1 uM
[5] = molecular target: Transcription initiation factor TFIID subunit 1-like (Homo sapiens) (UniProt Q8IZX4); experiment: Selectivity interaction (Bromodomain panel) EUB0000323b TAF1L; design: recommended concentration 1 uM
[6] = molecular target: Bromodomain-containing protein 3 (Homo sapiens) (UniProt Q15059); experiment: as §1; design: recommended concentration 1 uM; remark: listed apart in the source
[7] = molecular target: Bromodomain-containing protein 4 (Homo sapiens, UniProt O60885); experiment: Selectivity interaction (Bromodomain panel) EUB0000323b BRD4; design: recommended concentration 1 uM
[8] = molecular target: Transcription intermediary factor 1-alpha (Homo sapiens) (UniProt O15164); experiment: as §2; design: recommended concentration 1 uM; remark: listed apart in the source
[9] = molecular target: T1, Retinoic acid receptor RXR-alpha (Homo sapiens) (UniProt P19793); experiment: Selectivity interaction (Reporter gene assay) EUB0000190b RXRA; design: recommended concentration 1 uM; details: reference bexarotene 1 uM, Selectivity number of off-targets 0.0, Selectivity number of targets 1.0, Source Knowledge inhouse
T1 sequence (whole entry): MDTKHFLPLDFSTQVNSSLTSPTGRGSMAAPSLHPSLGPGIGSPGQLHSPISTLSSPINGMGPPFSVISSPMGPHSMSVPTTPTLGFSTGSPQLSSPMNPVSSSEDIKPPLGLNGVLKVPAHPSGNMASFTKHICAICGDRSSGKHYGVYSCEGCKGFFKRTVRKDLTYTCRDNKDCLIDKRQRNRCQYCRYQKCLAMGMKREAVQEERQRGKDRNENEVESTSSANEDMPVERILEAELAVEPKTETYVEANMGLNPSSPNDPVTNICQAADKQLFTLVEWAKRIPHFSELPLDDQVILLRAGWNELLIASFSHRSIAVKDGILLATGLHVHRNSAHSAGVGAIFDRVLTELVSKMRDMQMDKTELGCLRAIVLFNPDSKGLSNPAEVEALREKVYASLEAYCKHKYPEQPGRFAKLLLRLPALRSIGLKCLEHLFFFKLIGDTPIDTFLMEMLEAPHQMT

[10] = molecular target: T2, Nuclear receptor subfamily 2 group C member 1 (Homo sapiens) (UniProt P13056); experiment: Selectivity interaction (Reporter gene assay) EUB0000190b NR2C1; design: recommended concentration 1 uM
T2 sequence (whole entry): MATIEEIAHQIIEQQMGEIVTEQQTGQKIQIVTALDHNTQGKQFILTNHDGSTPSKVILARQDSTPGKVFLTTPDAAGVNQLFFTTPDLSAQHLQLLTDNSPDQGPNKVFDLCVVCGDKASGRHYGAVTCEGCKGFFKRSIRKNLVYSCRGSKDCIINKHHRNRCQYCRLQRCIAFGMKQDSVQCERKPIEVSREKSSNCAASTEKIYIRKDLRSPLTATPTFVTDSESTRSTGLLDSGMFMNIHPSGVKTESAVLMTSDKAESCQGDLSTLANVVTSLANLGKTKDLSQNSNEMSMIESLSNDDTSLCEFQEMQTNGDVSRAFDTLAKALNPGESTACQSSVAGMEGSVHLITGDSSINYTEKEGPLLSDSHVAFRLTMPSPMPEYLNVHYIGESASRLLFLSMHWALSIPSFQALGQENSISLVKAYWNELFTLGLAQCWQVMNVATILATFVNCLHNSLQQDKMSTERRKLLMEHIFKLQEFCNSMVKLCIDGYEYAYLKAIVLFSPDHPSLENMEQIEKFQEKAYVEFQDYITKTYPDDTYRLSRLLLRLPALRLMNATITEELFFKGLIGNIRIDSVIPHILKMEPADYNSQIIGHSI

[11] = molecular target: Steroidogenic factor 1 (Homo sapiens) (UniProt Q13285); experiment: Selectivity interaction (Reporter gene assay) EUB0000190b NR5A1; design: recommended concentration 1 uM
[12] = molecular target: Nuclear receptor subfamily 4immunitygroup A member 1 (Homo sapiens) (UniProt P22736); experiment: Selectivity interaction (Reporter gene assay) EUB0000190b NR4A1; design: recommended concentration 1 uM
[13] = molecular target: T3, Hepatocyte nuclear factor 4-alpha (Homo sapiens) (UniProt P41235); experiment: Selectivity interaction (Reporter gene assay) EUB0000190b HNF4A; design: recommended concentration 1 uM
T3 sequence (whole entry): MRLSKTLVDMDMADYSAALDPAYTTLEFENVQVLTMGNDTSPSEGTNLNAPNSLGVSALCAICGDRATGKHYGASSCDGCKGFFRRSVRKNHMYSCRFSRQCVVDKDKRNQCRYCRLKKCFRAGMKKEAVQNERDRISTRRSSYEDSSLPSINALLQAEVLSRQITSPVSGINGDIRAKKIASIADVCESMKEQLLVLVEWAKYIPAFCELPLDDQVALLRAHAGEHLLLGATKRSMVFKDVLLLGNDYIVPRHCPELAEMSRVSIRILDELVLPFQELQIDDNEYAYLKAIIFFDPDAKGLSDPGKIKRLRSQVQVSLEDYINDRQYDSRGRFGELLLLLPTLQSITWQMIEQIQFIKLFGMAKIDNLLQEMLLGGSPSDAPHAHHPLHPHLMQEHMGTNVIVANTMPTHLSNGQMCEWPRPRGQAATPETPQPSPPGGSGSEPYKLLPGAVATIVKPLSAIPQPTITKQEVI

[14] = molecular target: Nuclear receptor subfamily 2 group E member 1 (Homo sapiens) (UniProt Q9Y466); experiment: Selectivity interaction (Reporter gene assay) EUB0000190b NR2E1; design: recommended concentration 1 uM
[15] = molecular target: T4, Alpha trans-inducing protein (Human alphaherpesvirus 1) (UniProt A0A5J6DW59); experiment: Selectivity interaction (Reporter gene assay) EUB0000190b UL48; design: recommended concentration 1 uM
[16] = molecular target: T4, Alpha trans-inducing protein (Human alphaherpesvirus 1); experiment: Selectivity interaction (Reporter gene assay) EUB0000183b UL48; design: recommended concentration 3 uM
[17] = molecular target: Nuclear receptor subfamily 4immunitygroup A member 1 (Homo sapiens) (UniProt P22736); experiment: Selectivity interaction (Reporter gene assay) EUB0000183b NR4A1; design: recommended concentration 3 uM
[18] = molecular target: T2, Nuclear receptor subfamily 2 group C member 1 (Homo sapiens); experiment: Selectivity interaction (Reporter gene assay) EUB0000183b NR2C1; design: recommended concentration 3 uM
[19] = molecular target: T1, Retinoic acid receptor RXR-alpha (Homo sapiens); experiment: Selectivity interaction (Reporter gene assay) EUB0000183b RXRA; design: recommended concentration 3 uM
[20] = molecular target: T3, Hepatocyte nuclear factor 4-alpha (Homo sapiens); experiment: Selectivity interaction (Reporter gene assay) EUB0000183b HNF4A; design: recommended concentration 3 uM
[21] = molecular target: Nuclear receptor subfamily 2 group E member 1 (Homo sapiens) (UniProt Q9Y466); experiment: Selectivity interaction (Reporter gene assay) EUB0000183b NR2E1; design: recommended concentration 3 uM
[22] = molecular target: Steroidogenic factor 1 (Homo sapiens) (UniProt Q13285); experiment: Selectivity interaction (Reporter gene assay) EUB0000183b NR5A1; design: recommended concentration 3 uM
[23] = molecular target: Nuclear receptor subfamily 2 group E member 1 (Homo sapiens) (UniProt Q9Y466); experiment: Selectivity interaction (Reporter gene assay) EUB0000081c NR2E1; design: recommended concentration 1 uM
[24] = molecular target: T3, Hepatocyte nuclear factor 4-alpha (Homo sapiens); experiment: Selectivity interaction (Reporter gene assay) EUB0000081c HNF4A; design: recommended concentration 1 uM
[25] = molecular target: T4, Alpha trans-inducing protein (Human alphaherpesvirus 1); experiment: Selectivity interaction (Reporter gene assay) EUB0000081c UL48; design: recommended concentration 1 uM
[26] = molecular target: T2, Nuclear receptor subfamily 2 group C member 1 (Homo sapiens); experiment: Selectivity interaction (Reporter gene assay) EUB0000081c NR2C1; design: recommended concentration 1 uM
[27] = molecular target: T1, Retinoic acid receptor RXR-alpha (Homo sapiens); experiment: Selectivity interaction (Reporter gene assay) EUB0000081c RXRA; design: recommended concentration 1 uM
[28] = molecular target: Nuclear receptor subfamily 4immunitygroup A member 1 (Homo sapiens) (UniProt P22736); experiment: Selectivity interaction (Reporter gene assay) EUB0000081c NR4A1; design: recommended concentration 1 uM
[29] = molecular target: Steroidogenic factor 1 (Homo sapiens) (UniProt Q13285); experiment: Selectivity interaction (Reporter gene assay) EUB0000081c NR5A1; design: recommended concentration 1 uM
[30] = molecular target: Alpha-2B adrenergic receptor (Homo sapiens) (UniProt P18089); experiment: Selectivity interaction (Custom Panel of enzymes and receptors (Eurofins)) EUB0000234b ADRA2B; design: recommended concentration 1 uM; details: at 10 µM
Mu-type opioid receptor = Mu-type opioid receptor (Homo sapiens, UniProt P35372); experiment: Selectivity interaction (Custom Panel of enzymes and receptors (Eurofins)) EUB0000234b OPRM1; design: recommended concentration 1 uM; details: at 10 µM
[31] = molecular target: Muscarinic acetylcholine receptor M2 (Homo sapiens) (UniProt P08172); experiment: Selectivity interaction (Custom Panel of enzymes and receptors (Eurofins)) EUB0000234b CHRM2; design: recommended concentration 1 uM; details: at 10 µM
[32] = molecular target: Histamine H3 receptor (Homo sapiens) (UniProt Q9Y5N1); experiment: Selectivity interaction (Custom Panel of enzymes and receptors (Eurofins)) EUB0000234b HRH3; design: recommended concentration 1 uM; details: at 10 µM
[33] = molecular target: Sodium-dependent noradrenaline transporter (Homo sapiens) (UniProt P23975); experiment: Selectivity interaction (CEREP panel) EUB0000089c SLC6A2; design: recommended concentration 1 uM; details: at 10 µM
[34] = molecular target: Adenosine receptor A2a (Homo sapiens) (UniProt P29274); experiment: Selectivity interaction (CEREP panel) EUB0000089c ADORA2A; design: recommended concentration 1 uM; details: at 10 µM
[35] = molecular target: 5-hydroxytryptamine receptor 2B (Homo sapiens) (UniProt P41595); experiment: Selectivity interaction (CEREP panel) EUB0000089c HTR2B; design: recommended concentration 1 uM; details: at 10 µM
[36] = molecular target: Adenosine receptor A1 (Homo sapiens) (UniProt P30542); experiment: Selectivity interaction (CEREP panel) EUB0000089c ADORA1; design: recommended concentration 1 uM; details: at 10 µM

T4 sequence (A0A5J6DW59 as listed by the source): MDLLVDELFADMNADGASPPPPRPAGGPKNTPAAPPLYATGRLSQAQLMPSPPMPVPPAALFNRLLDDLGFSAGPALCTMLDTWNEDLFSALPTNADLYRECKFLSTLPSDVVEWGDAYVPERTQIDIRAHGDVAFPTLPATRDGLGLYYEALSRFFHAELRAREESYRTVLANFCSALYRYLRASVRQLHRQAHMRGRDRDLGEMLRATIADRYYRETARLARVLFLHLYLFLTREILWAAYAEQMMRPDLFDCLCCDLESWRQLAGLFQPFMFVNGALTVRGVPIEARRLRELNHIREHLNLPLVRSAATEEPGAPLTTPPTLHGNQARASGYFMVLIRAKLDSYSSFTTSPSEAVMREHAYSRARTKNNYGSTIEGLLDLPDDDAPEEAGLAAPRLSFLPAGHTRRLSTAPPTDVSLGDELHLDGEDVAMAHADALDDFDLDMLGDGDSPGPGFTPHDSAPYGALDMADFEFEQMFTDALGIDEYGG
Steroidogenic factor 1 (Homo sapiens), sequence (Q13285 whole entry): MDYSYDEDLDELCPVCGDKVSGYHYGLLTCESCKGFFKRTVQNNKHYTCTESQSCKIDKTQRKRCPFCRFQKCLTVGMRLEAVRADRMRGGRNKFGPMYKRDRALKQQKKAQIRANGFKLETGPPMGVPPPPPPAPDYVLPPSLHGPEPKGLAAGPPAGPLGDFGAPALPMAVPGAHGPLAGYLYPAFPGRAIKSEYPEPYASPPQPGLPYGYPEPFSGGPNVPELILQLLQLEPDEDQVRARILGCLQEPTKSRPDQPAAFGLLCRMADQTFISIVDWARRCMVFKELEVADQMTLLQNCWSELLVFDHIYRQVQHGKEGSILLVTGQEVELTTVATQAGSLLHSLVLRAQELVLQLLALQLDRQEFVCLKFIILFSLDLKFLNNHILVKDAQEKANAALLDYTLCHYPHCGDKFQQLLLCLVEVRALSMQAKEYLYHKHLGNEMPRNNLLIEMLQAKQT
Nuclear receptor subfamily 4immunitygroup A member 1 (Homo sapiens), sequence (P22736 whole entry): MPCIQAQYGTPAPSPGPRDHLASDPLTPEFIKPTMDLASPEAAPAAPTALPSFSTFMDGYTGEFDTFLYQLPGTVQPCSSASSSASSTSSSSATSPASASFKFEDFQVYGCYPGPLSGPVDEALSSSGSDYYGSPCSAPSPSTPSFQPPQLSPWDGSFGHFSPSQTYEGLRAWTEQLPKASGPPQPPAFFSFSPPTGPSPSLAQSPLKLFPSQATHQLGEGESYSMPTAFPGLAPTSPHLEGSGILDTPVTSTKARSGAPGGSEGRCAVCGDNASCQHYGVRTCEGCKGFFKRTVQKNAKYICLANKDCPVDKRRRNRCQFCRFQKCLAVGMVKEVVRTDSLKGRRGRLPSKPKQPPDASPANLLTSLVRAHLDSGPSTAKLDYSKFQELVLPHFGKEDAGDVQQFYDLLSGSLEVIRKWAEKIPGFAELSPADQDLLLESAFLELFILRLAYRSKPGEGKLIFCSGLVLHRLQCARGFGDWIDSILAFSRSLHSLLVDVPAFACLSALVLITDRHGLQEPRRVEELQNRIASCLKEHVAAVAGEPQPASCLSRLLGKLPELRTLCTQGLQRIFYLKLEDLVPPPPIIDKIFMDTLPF
Nuclear receptor subfamily 2 group E member 1 (Homo sapiens), sequence (Q9Y466 whole entry): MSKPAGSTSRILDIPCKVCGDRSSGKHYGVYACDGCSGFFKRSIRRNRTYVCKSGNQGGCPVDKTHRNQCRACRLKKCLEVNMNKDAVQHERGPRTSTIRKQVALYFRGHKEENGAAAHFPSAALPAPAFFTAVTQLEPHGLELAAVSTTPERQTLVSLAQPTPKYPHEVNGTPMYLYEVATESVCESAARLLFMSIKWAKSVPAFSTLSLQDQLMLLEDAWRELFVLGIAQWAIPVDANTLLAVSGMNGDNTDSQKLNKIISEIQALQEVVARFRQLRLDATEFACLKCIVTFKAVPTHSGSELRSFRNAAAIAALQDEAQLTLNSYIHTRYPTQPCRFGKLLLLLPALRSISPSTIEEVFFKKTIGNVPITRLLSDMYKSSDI
Transcription intermediary factor 1-alpha (Homo sapiens), sequence (O15164 whole entry): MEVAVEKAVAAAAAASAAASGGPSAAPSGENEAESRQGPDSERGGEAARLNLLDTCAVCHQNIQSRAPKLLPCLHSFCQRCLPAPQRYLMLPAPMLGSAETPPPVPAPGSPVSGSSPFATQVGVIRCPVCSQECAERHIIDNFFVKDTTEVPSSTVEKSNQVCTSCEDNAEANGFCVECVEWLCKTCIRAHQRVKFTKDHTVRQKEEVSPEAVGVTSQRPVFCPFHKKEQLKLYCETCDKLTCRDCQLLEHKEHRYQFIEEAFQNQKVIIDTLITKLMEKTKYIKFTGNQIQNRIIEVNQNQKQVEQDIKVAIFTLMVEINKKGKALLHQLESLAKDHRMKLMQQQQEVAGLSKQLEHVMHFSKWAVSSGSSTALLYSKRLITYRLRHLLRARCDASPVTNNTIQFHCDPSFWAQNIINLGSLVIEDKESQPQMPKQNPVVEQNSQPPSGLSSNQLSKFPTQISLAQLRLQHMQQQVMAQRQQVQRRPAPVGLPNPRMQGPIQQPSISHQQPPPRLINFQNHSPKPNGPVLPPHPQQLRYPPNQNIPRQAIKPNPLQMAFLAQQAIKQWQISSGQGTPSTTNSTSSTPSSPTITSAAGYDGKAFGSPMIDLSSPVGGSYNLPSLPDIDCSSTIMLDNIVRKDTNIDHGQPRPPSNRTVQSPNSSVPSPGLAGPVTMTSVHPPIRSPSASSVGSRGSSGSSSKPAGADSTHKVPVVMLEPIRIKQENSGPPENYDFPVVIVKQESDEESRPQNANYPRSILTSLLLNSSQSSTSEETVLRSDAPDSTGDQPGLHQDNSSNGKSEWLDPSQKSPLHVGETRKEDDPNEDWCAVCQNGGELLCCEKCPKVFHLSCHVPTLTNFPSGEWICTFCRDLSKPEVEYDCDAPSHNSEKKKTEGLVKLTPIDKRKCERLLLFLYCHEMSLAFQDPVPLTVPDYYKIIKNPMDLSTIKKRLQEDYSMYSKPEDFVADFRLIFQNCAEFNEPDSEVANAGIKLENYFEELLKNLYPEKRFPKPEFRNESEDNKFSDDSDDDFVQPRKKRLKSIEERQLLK
Adenosine receptor A1 (Homo sapiens), sequence (P30542 whole entry): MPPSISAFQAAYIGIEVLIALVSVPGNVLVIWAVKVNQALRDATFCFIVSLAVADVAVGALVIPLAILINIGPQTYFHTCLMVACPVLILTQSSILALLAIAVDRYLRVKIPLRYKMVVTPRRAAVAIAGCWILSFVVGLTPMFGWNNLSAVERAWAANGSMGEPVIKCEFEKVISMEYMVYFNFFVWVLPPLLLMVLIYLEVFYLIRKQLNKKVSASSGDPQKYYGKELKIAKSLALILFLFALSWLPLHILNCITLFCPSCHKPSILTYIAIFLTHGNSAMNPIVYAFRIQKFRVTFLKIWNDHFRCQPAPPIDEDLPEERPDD
Bromodomain-containing protein 3 (Homo sapiens), sequence (Q15059 2-726 limits assumed): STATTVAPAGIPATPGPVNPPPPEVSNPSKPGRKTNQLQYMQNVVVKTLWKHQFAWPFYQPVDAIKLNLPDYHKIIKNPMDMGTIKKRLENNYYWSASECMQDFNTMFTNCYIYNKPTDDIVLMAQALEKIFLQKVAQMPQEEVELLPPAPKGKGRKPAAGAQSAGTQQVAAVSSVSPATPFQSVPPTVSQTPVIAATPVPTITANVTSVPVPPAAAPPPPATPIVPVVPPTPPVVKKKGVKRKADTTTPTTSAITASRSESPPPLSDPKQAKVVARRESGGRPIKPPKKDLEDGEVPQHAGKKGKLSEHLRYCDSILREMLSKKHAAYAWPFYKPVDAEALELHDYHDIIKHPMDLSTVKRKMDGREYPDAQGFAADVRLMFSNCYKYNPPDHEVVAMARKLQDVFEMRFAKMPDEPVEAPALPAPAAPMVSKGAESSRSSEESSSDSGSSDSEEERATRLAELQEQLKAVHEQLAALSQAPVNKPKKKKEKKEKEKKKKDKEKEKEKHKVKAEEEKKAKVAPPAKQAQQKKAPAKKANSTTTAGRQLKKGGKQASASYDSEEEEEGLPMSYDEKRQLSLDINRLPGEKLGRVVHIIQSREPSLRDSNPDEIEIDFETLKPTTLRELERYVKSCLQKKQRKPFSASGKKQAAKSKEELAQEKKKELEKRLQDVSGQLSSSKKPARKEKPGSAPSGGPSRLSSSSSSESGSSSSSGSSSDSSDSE
Sodium-dependent noradrenaline transporter (Homo sapiens), sequence (P23975 whole entry): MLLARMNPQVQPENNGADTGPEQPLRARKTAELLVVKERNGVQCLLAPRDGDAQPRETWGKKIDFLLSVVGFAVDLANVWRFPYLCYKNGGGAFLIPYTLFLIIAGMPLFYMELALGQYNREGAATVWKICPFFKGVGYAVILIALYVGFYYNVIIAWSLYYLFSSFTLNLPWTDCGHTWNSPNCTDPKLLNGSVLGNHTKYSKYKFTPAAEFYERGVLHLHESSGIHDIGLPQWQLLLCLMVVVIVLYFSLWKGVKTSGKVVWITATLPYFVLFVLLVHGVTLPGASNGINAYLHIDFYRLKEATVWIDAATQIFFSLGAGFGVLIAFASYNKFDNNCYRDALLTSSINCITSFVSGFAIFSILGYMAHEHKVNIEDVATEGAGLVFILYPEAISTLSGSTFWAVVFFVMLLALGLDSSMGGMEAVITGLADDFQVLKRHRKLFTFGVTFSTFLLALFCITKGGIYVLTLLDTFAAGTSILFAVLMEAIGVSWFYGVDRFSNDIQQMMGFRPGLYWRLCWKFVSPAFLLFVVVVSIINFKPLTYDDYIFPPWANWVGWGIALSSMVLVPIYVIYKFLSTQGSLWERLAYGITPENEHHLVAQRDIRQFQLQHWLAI

## COc1cc2c(cc1NS(=O)(=O)c1ccc(Br)cc1C)n(C)c(=O)n2C
[1]
  ΔTm: 1.4 °C
[2]
  ΔTm: 1.2 °C
[3]
  Inhibition of control: 82%
[4]
  ΔTm: 1.6 °C
[5]
  ΔTm: 1.4 °C
[6]
  ΔTm: 1.6 °C
[7]
  ΔTm: 2 °C
[8]
  ΔTm: 1.8 °C

## CN(CCOc1ccc(CC2SC(=O)NC2=O)cc1)c1ccccn1 (configuration not stated)
[9]
  Relative activation: 1.04%
[10]
  Fold activation: 1.17
[11]
  Fold activation: 1.08
[12]
  Remaining activity: 0.964
[13]
  Fold activation: 1.09
[14]
  Fold activation: 1.05
[15]
  P-value: 2.07e-12

## Cc1cc(C)c(S(=O)(=O)N(Cc2ccc(-c3cccc(S(C)(=O)=O)c3)cc2)Cc2ccc(C(F)(F)F)o2)c(C)c1
[16]
  P-value: 0.011
[17]
  Remaining activity: 0.982
[18]
  Fold activation: 1.06
[19]
  Relative activation: 0.984%
[20]
  Fold activation: 1.28
[21]
  Fold activation: 1.26
[22]
  Fold activation: 1.29

## CC[C@H]1[C@@H](O)[C@@H]2[C@H](CC[C@]3(C)[C@@H]([C@H](C)CCC(=O)O)CC[C@@H]23)[C@@]2(C)CC[C@@H](O)C[C@@H]12
[23]
  Fold activation: 1.13
[24]
  Fold activation: 1.14
[25]
  P-value: 0.000147
[26]
  Fold activation: 1.19
[27]
  Relative activation: 0.53%
[28]
  Fold activation: 1.23
[29]
  Fold activation: 1.04

## COc1cc(OC)cc(-c2noc(N3CCN(C)C4(CCN(c5ccnc(C)c5)CC4)C3)n2)c1
[30]
  Inhibition of control: > 50%
Mu-type opioid receptor
  Inhibition of control: > 50%
[31]
  Inhibition of control: > 50%
[32]
  Inhibition of control: > 50%

## Nc1nc(NC2CC2)cc(-c2cccc(Cl)c2Cl)n1
[33]
  Inhibition of control: 99%
[34]
  Inhibition of control: 81%
[35]
  Inhibition of control: 92%
[36]
  Inhibition of control: 79%
